Assay results: patent US8580794B2 (AbbVie Inc., priority 2009, dated 2013)

Legend:
[1] = tested on: RS4;11 cells; settings: Blood, 2008, Vol. 111, 2300-2309; cited from earlier work
[2] = target: GST-Bc1-2 (Homo sapiens, UniProt P10415); assay: Time Resolved-Fluorescence Resonance Energy Transfer (TR-FRET) Bcl-2 binding assay with F-Bak peptide probe; settings: GST-Bcl-2 1 nM, F-Bak probe 100 nM, Tb-anti-GST 1 nM; '<' = below limit of detection; read-out: TR-FRET Bcl-2 Binding Ki
[3] = tested on: RS4;11 cells; assay: RS4;11 Cell Viability Assay (CellTiter Glo); format: cell-based; settings: 10% human serum;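 further: RS4,11 acute lymphoblastic leukemia cells, viability as percent of untreated control cells, EC50 for loss of viable cells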
Description: The acute lymphoblastic leukemia (ALL) cell line RS4;11 was used as the primary human cell line to assess the cellular activity of Bcl-2 selective agents in vitro and their efficacy in vivo.
Cell cytotoxicity EC50 values were assessed using CellTiter Glo (Promega) according to the manufacturer's recommendations. The EC50 values were determined as a percentage of viable cells following treatment compared to the untreated control cells.

[4] = Homo sapiens, RS4-11, 48 h, 50,000 cells per well

Sequence of GST-Bc1-2 (P10415 whole entry): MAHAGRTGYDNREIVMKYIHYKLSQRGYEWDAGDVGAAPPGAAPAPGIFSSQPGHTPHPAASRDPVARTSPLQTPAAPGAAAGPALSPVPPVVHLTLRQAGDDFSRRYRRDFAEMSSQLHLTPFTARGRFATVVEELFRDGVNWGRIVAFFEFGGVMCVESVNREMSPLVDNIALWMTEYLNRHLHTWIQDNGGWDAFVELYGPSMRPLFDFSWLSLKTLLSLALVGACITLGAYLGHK

| SMILES | sensitivity of RS4;11 cells to inhibitor [1] | Ki [2] | EC50 [3, 4] | EC50 ([3]; 50,000 cells per well, 48 hours) |
| --- | --- | --- | --- | --- |
| CN(C)CC[C@H](CSc1ccccc1)Nc1ccc(S(=O)(=O)NC(=O)c2ccc(N3CCN(Cc4ccccc4-c4ccc(Cl)cc4)CC3)cc2)cc1[N+](=O)[O-] [ABT-737, N-(4-(4-((4′-chloro(1,1′-biphenyl)-2-yl)methyl)piperazin-1-yl)benzoyl)-4-(((1R)-3-(dimethylamino)-1-((phenylsulfanyl)methyl)propyl)amino)-3-nitrobenzenesulfonamide] | sensitive |  |  |  |
| CC1(C)CCC(CN2CCN(c3ccc(C(=O)NS(=O)(=O)c4ccc(NC[C@H]5CC[C@H](C(=O)O)CC5)c([N+](=O)[O-])c4)c(Oc4cnc5[nH]ccc5c4)c3)CC2)=C(c2ccc(Cl)cc2)C1 [Example 380, trans-4-{[(4-{[4-(4-{[2-(4-chlorophenyl)-4,4-dimethylcyclohex-1-en-1-yl]methyl}piperazin-1-yl)-2-(1H-pyrrolo[2,3-b]pyridin-5-yloxy)benzoyl]sulfamoyl}-2-nitrophenyl)amino]methyl}cyclohexanecarboxylic acid] |  | < 0.01 nM | 134 nM |  |
| CC1(C)CCC(CN2CCN(c3ccc(C(=O)NS(=O)(=O)c4ccc(NC(=O)N5CCC(C)(O)CC5)c(Cl)c4)c(Oc4cnc5[nH]ccc5c4)c3)CC2)=C(c2ccc(Cl)cc2)C1 [Example 394, N-(2-chloro-4-{[4-(4-{[2-(4-chlorophenyl)-4,4-dimethylcyclohex-1-en-1-yl]methyl}piperazin-1-yl)-2-(1H-pyrrolo[2,3-b]pyridin-5-yloxy)benzoyl]sulfamoyl}phenyl)-4-hydroxy-4-methylpiperidine-1-carboxamide] |  | 0.132 nM | 461 nM |  |
| CC1(C)CCC(CN2CCN(c3ccc(C(=O)NS(=O)(=O)c4cnc5c(c4)c(Cl)cn5CC4CCOCC4)c(Oc4cnc5[nH]ccc5c4)c3)CC2)=C(c2ccc(Cl)cc2)C1 [Example 389, 4-(4-{[2-(4-chlorophenyl)-4,4-dimethylcyclohex-1-en-1-yl]methyl}piperazin-1-yl)-N-{[3-chloro-1-(tetrahydro-2H-pyran-4-ylmethyl)-1H-pyrrolo[2,3-b]pyridin-5-yl]sulfonyl}-2-(1H-pyrrolo[2,3-b]pyridin-5-yloxy)benzamide] |  | 0.774 nM | 733 nM |  |
| CC1(C)CCC(CN2CCN(c3ccc(C(=O)NS(=O)(=O)c4cnc(OC[C@H]5CC[C@@](O)(CO)CC5)c(Cl)c4)c(Oc4cnc5[nH]ccc5c4)c3)CC2)=C(c2ccc(Cl)cc2)C1 [Example 401, N-[(5-chloro-6-{[trans-4-hydroxy-4-(hydroxymethyl)cyclohexyl]methoxy}pyridin-3-yl)sulfonyl]-4-(4-{[2-(4-chlorophenyl)-4,4-dimethylcyclohex-1-en-1-yl]methyl}piperazin-1-yl)-2-(1H-pyrrolo[2,3-b]pyridin-5-yloxy)benzamide] |  | < 0.01 nM | 26.6 nM |  |
| CC1(C)CCC(CN2CCN(c3ccc(C(=O)NS(=O)(=O)c4cnc(OCC5CCC6(CC5)CNC(=O)O6)c(Cl)c4)c(Oc4cnc5[nH]ccc5c4)c3)CC2)=C(c2ccc(Cl)cc2)C1 (single isomer, unassigned) [Example 397, N-[(5-chloro-6-{[(5s,8s)-2-oxo-1-oxa-3-azaspiro[4.5]dec-8-yl]methoxy}pyridin-3-yl)sulfonyl]-4-(4-{[2-(4-chlorophenyl)-4,4-dimethylcyclohex-1-en-1-yl]methyl}piperazin-1-yl)-2-(1H-pyrrolo[2,3-b]pyridin-5-yloxy)benzamide] |  | 0.041 nM |  | 113 nM |
| COC1CCN(C(=O)Nc2ccc(S(=O)(=O)NC(=O)c3ccc(N4CCN(CC5=C(c6ccc(Cl)cc6)CC(C)(C)CC5)CC4)cc3Oc3cnc4[nH]ccc4c3)cc2[N+](=O)[O-])CC1 [Example 386, N-(4-{[4-(4-{[2-(4-chlorophenyl)-4,4-dimethylcyclohex-1-en-1-yl]methyl}piperazin-1-yl)-2-(1H-pyrrolo[2,3-b]pyridin-5-yloxy)benzoyl]sulfamoyl}-2-nitrophenyl)-4-methoxypiperidine-1-carboxamide] |  | < 0.01 nM | 8.38 nM |  |
| CC1(C)CCC(CN2CCN(c3ccc(C(=O)NS(=O)(=O)c4ccc(N[C@@H]5CCN(CCF)C5)c([N+](=O)[O-])c4)c(Oc4cnc5[nH]ccc5c4)c3)CC2)=C(c2ccc(Cl)cc2)C1 [Example 183, 4-(4-{[2-(4-chlorophenyl)-4,4-dimethylcyclohex-1-en-1-yl]methyl}piperazin-1-yl)-N-[(4-{[(3R)-1-(2-fluoroethyl)pyrrolidin-3-yl]amino}-3-nitrophenyl)sulfonyl]-2-(1H-pyrrolo[2,3-b]pyridin-5-yloxy)benzamide] |  | < 0.01 nM | 17.5 nM |  |
| CC1(C)CCC(CN2CCN(c3ccc(C(=O)NS(=O)(=O)c4cnc(OC[C@H]5CC[C@](O)(CO)CC5)c(Cl)c4)c(Oc4cnc5[nH]ccc5c4)c3)CC2)=C(c2ccc(Cl)cc2)C1 [Example 400, N-[(5-chloro-6-{[cis-4-hydroxy-4-(hydroxymethyl)cyclohexyl]methoxy}pyridin-3-yl)sulfonyl]-4-(4-{[2-(4-chlorophenyl)-4,4-dimethylcyclohex-1-en-1-yl]methyl}piperazin-1-yl)-2-(1H-pyrrolo[2,3-b]pyridin-5-yloxy)benzamide] |  | 0.031 nM | 64 nM |  |
| O=C(NS(=O)(=O)c1ccc(NCC2CCOCC2)c([N+](=O)[O-])c1)c1ccc(N2CCN(CC3=C(c4ccc(Cl)cc4)CCCC3)CC2)cc1Oc1cnc2[nH]ccc2c1 [Example 403, 4-(4-{[2-(4-chlorophenyl)cyclohex-1-en-1-yl]methyl}piperazin-1-yl)-N-({3-nitro-4-[(tetrahydro-2H-pyran-4-ylmethyl)amino]phenyl}sulfonyl)-2-(1H-pyrrolo[2,3-b]pyridin-5-yloxy)benzamide] |  | < 0.01 nM | 34 nM |  |
| COC1CCN(C(=O)Nc2ccc(S(=O)(=O)NC(=O)c3ccc(N4CCN(CC5=C(c6ccc(Cl)cc6)CC(C)(C)CC5)CC4)cc3Oc3cnc4[nH]ccc4c3)cc2Cl)CC1 [Example 392, N-(2-chloro-4-{[4-(4-{[2-(4-chlorophenyl)-4,4-dimethylcyclohex-1-en-1-yl]methyl}piperazin-1-yl)-2-(1H-pyrrolo[2,3-b]pyridin-5-yloxy)benzoyl]sulfamoyl}phenyl)-4-methoxypiperidine-1-carboxamide] |  | 0.171 nM | > 1000 nM |  |
